Data taken from patent US7235674B2, “Substituted coumarins and quinolines and analogs as activators of caspases and inducers of apoptosis and the use thereof” (Cytovia, Inc., priority 2001, dated 2007).

Tests used:
[1] = test system: Human breast cancer cell line ZR-75-1; assay: Caspase cascade activation assay (N-(Ac-DEVD)-N'-ethoxycarbonyl-R110 fluorogenic substrate) in ZR-75-1 cells; assay type: cell-based; conditions: for Caspase activity (Ratio) ZR-75-1: ratio of net RFU of test compound to control, 3 h substrate reading; for maximal fold induction: ZR-75-1, 24 h, read-out: Max efficacy ZR751
Experimental: (§1) Human breast cancer cell lines T-47D and ZR-75-1 were grown according to media component mixtures designated by American Type Culture Collection +10% FCS (Invitrogen Corporation), in a 5% CO2 −95% humidity incubator at 37° C. T-47D and ZR-75-1 cells were maintained at a cell density between 30 and 80% confluency at a cell density of 0.1 to 0.6×10^6 cells/mL. Cells were harvested at 600×g and resuspended at 0.65×10^6 cells/mL into appropriate media +10% FCS. An aliquot of 45 μl of cells was added to a well of a 96-well microtiter plate containing 5 μl of a 10% DMSO in RPMI-1640 media solution containing 0.16 to 10 μM of 3-cyano-7-methoxy-4-(3-bromo-4,5-dimethoxyphenyl)-2-oxo-2H-chromene (Example 1) or other test compound (0.016 to 1 μM final). An aliquot of 45 μl of cells was added to a well of a 96-well microtiter plate containing 5 μl of a 10% DMSO in RPMI-1640 media solution without test compound as the control sample. The samples were mixed by agitation and then incubated at 37° C. for 24 h in a 5% CO2 −95% humidity incubator. After incubation, the samples were removed from the incubator and 50 μl of a solution containing 20 μM of N-(Ac-DEVD)-N′-ethoxycarbonyl-R110 fluorogenic substrate (SEQ ID NO:1) (Cytovia, Inc.; WO99/18856), 20% sucrose (Sigma), 20 mM DTT (Sigma), 200 mM NaCl (Sigma), 40 mM Na PIPES buffer pH 7.2 (Sigma), and 500 μg/ml lysolecithin (Calbiochem) was added. The samples were mixed by agitation and incubated at room temperature. Using a fluorescent plate reader (Model 1420 Wallac Instruments), an initial reading (T=0) was made approximately 1-2 min after addition of the substrate solution, employing excitation at 485 nm and emission at 530 nm, to determine the background fluorescence of the control sample. After the 3 h incubation, the samples were read for fluorescence as above (T=3 h).
(§2) The Relative Fluorescence Unit values (RFU) were used to calculate the sample readings as follows: RFU(T=3 h)−Control RFU(T=0)=Net RFU(T=3 h)
(§3) The activity of caspase cascade activation was determined by the ratio of the net RFU value for 3-cyano-7-methoxy-4-(3-bromo-4,5-dimethoxy-phenyl)-2-oxo-2H-chromene, or other test compound, to that of control samples. The EC50 (nM) was determined by a sigmoidal dose-response calculation (Prism 2.0, GraphPad Software Inc.).

[2] = test system: Human breast cancer cell line T-47D; assay: Caspase cascade activation assay (N-(Ac-DEVD)-N'-ethoxycarbonyl-R110 fluorogenic substrate) in T-47D cells; assay type: cell-based; conditions: for EC50 / EC50 (nM) T-47D: caspase cascade activation potency; for EC50 / Caspase activity (Ratio) T-47D / EC50 (nM) T-47D: T-47D cells, 24 h incubation; for Caspase activity (Ratio) T-47D: ratio of net RFU of test compound to control, 3 h substrate reading; for EC50 (nM) T47D / Max efficacy T47D: commercial fused-pyridine compounds, T47D cells
Experimental: as §1, §2, §3

[3] = Homo sapiens, caspase cascade activation potency, ZR-75-1 cells, 24 h incubation
[4] = Homo sapiens, commercial fused-pyridine compounds, ZR751 cells
[5] = Homo sapiens, ZR-75-1, commercial fused-pyridine compounds, ZR751 cells

SMILES | EC50 [1, 3] [nM] | EC50 ([2]; Homo sapiens, T47D) [nM] | EC50 ([1]; caspase cascade activation potency, ZR-75-1 cells, 24 h incubation) [nM] | EC50 [2] [nM] | EC50 (nM) T-47D [2] | EC50 [1, 5] [nM] | EC50 (nM) T47D [2] | Caspase activity (Ratio) ZR-75-1 ([1]; ZR-75-1 cells, 24 h incubation) | Caspase activity (Ratio) T-47D [2] | maximal fold induction [1, 4] | Max efficacy T47D [2]
COc1cc(OC)cc(-c2c(C#N)c(=O)oc3c2ccc2c3ccn2C)c1 [Example 39, 3-Cyano-4-(3,5-dimethoxy-phenyl)-7-methyl-2-oxo-2H-pyrrolo[2,3-h]chromene] | 20 | > 100 |  |  |  |  |  | 5.2 | 1.9 |  | 
COc1cccc(-c2c(C#N)c(=O)[nH]c3cc(Cl)ccc23)c1 [Example 8, 7-Chloro-3-cyano-4-(3-methoxy-phenyl)-quinolin-1H-2-one] |  |  | 878 | 1170 |  |  |  | 10.1 | 4.1 |  | 
Cn1ccc2c3oc(=O)c(C#N)c(-c4cccc([N+](=O)[O-])c4)c3ccc21 [Example 38, 3-Cyano-7-methyl-4-(3-nitro-phenyl)-2-oxo-2H-pyrrolo[2,3-h]chromene] | 22 | > 100 |  |  |  |  |  | 5.0 | 1.8 |  | 
COc1ccc(OC)c(C2=c3ccc4c(c3OC(=O)C2C#N)C=CN=4)c1 (stereo not drawn) [Example 24, 3-Cyano-4-(2,5-dimethoxyphenyl)-2-oxo-2H-pyrrolo[2,3-h]chromene] | 405 | 585 |  |  |  |  |  | 7.1 | 4.5 |  | 
COc1ccc(-c2c(C#N)c(N)nc3c2CN(C)CC3)cc1OC [compound 50] |  |  |  |  |  | 576 | Inactive |  |  | 2.4 | Inactive
COc1cc(-c2c(C#N)c(=O)oc3c2ccc2c3ccn2C)cc2c1OCO2 [Example 40, 3-Cyano-4-(3-methoxy-4,5-methylenedioxyphenyl)-7-methyl-2-oxo-2H-pyrrolo[2,3-h]chromene] | 24 | > 100 |  |  |  |  |  | 4.9 | 1.7 |  | 

The next lines start with results.

EC50 [1, 3] [nM] | EC50 ([2]; Homo sapiens, T47D) [nM] | EC50 ([1]; caspase cascade activation potency, ZR-75-1 cells, 24 h incubation) [nM] | EC50 [2] [nM] | EC50 (nM) T-47D [2] | EC50 [1, 5] [nM] | EC50 (nM) T47D [2] | SMILES | Caspase activity (Ratio) ZR-75-1 ([1]; ZR-75-1 cells, 24 h incubation) | Caspase activity (Ratio) T-47D [2] | maximal fold induction [1, 4] | Max efficacy T47D [2]
2770 |  |  |  | Inactive |  |  | COc1cc(-c2c(C#N)c(=N)oc3cc(N)ccc23)cc(Br)c1OC [Example 26, 7-Amino-4-(3-bromo-4,5-dimethoxy-phenyl)-3-cyano-2-imino-2H-chromene] | 8.8 | 1.9 |  | 
 |  |  |  |  | 571 | Inactive | COc1ccc(-c2c(C#N)c(N)nc3c2CCc2ccccc2-3)cc1OC [compound 45] |  |  | 7 | Inactive
1000 |  |  |  | Inactive |  |  | COc1cc(-c2cc3c(c4c2=C(C#N)C(=O)O4)OC(C)(C)CC=3)cc(Br)c1OC [Example 20, 4-(3-Bromo-4,5-dimethoxyphenyl)-3-cyano-7,8-dihydro-8,8-dimethyl-2-oxo-2H-furo[3,2-h]chromene] | 3.1 | 1.6 |  | 
